Laboratory results from article PMC6368365, “Didehydro-Cortistatin A Inhibits HIV-1 by Specifically Binding to the Unstructured Basic Region of Tat” (mBio, 2019).

What was measured:
HIV = system: HIV; design: method as in PMID 29045830; conditions: dCA added to ART-suppressed mice; cited from earlier work
[1] = system: NL4-3 strain in CDK8/CDK19 knockdown cells; assay: NL4-3 infection of CDK8/CDK19 knockdown HeLa CD4 cells; type: cell-based, HIV-1; conditions: dCA 200 nM, CDK8, CDK19 or CDK8/CDK19 knockdown; viral mRNA and p24
Procedure: The only other known ligand for dCA is CDK8. […] As such, virus-like particles (VLPs) expressing short hairpin RNAs (shRNAs) against CDK8, CDK19, CDK8/CDK19, or the shRNA control were transduced into HeLa CD4 cells. Stabilization of the knockdown was performed by puromycin selection of the populations over a 2-week period. Both RT-qPCR and Western blotting confirmed successful knockdown of CDK8/CDK19 proteins (Fig. 4A and B). These cells were then infected with NL4-3 and treated or not with dCA, and production of viral RNA and p24 in the supernatant were assessed 72 hours later. […]
HeLa CD4 cells were transduced with VLPs expressing shRNAs against CDK8, CDK19, or both and puromycin selected to stabilize knockdown (KD). […], mRNA, DNA, and p24 capsid in supernatant were collected and measured. (A and B) CDK8 mRNA and CDK19 mRNA expression was assessed by qRT-PCR and normalized to GAPDH mRNA. […] (C) Protein expression of CDK8 and CDK19 was analyzed 72 hours postinfection by Western blotting. […] (D) Viral mRNA production measured by qRT-PCR using primers against the Nef region was measured as a function of total integrated proviral DNA. […] Statistical significance was determined using one-way ANOVA with post hoc Tukey’s test. ns, not significant; ns^a, DMSO KD CDK19 versus dCA KD CDK19. *, P < 0.01; ***, P < 0.0001; **, P < 0.001. […]

[2] = design: method as in PMID 22817991, PMID 29045830, PMID 25613133; conditions: mice; cited from earlier work

For `CN(C)C1CC23CCC4(O2)C(=CCC2(C)C(c5ccc6ccncc6c5)=CCC24)C=C3C(O)C1O` (stereo not drawn) [dCA, didehydro-cortistatin A], the in vivo efficacy (HIV) is listed as “systemically reduced viral mRNA in tissues and significantly delayed and reduced viral rebound levels upon treatment interruption”, the “dependence of anti-HIV activity on CDK8” value [1] is listed as “does not mediate its anti-HIV activity through CDK8 inhibition” and the bioavailability [2] is listed as “good bioavailability in mice”.
